Results published in patent US20130252930A1 (BIOMARIN PHARMACEUTICAL INC., priority 2010, published 2013).
Where two headings read alike, the source gives them in different places.

Experiments:
[1] = molecular target: T1, CYP17 (human testicular microsome) (Homo sapiens, UniProt P05093); assay: CYP17 enzymatic assay (% inhibition at 1 nM) (Biological Example 12); type: biochemical; conditions: compound at 1 nM
T1 construct: using microsomal fraction from human testis (Celsis Cat #S00110) as the enzyme source; tissue Celsis S00110; host or cells: human testis microsomal fraction
T1 sequence (P05093 1-508): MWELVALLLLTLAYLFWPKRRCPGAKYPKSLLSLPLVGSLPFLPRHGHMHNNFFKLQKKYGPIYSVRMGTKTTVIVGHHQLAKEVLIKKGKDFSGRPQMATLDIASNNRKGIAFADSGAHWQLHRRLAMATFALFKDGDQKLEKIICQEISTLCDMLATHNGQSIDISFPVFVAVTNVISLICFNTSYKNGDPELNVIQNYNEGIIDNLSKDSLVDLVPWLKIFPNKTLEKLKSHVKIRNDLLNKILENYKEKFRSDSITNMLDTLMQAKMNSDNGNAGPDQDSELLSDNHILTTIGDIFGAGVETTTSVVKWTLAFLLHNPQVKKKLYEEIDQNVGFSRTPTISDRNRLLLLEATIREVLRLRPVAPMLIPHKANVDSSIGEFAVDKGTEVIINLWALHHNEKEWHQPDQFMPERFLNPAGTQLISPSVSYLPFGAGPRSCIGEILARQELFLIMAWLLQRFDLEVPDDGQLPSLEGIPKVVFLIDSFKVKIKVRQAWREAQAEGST

[2] = molecular target: T1, CYP17 (human testicular microsome); assay: CYP17 enzymatic assay (IC50) (Biological Example 4); type: biochemical; conditions: human testicular microsome
Protocol: The assays were performed in 96-well plates. Typical assays were carried out in total 100 μL volume that included test compounds at designated concentrations, 1× reaction buffer, 0.5 mM NADPH, 1 μM 17α-hydroxypregnenolone, and 2.5 μL of diluted human testicular microsome (Celsis. Cat #S00110). Reaction without test compound served as positive control. Reactions were allowed to incubate at 37° C. for 90 minutes with gentle shaking. The reaction was stopped by directly applying the enzymatic reaction mixture to ELISA plate for evaluation of DHEA concentration according to manufacturer's protocol (IBL America). A standard curve (OD450 vs. DHEA concentration) was generated using purified DHEA.

[3] = Human liver microsome stability assay (Biological Example 8b); conditions: liver microsomes, pH 7.4
Protocol: The reaction was started with addition of excess NADPH (5 mg/mL, 15 μL in 0.1 M potassium phosphate buffer, 1.0 mM EDTA, pH 7.4), the total volume is 45 μL (compound final concentration was 1 μM). […] 50 μL of the supernatant was transferred from each well into a 96-well sample plate containing 50 μL of ultra-pure water (Millipore) for LC-MS/MS analysis.

[4] = read-out: Biological Example No. 12: CYP17 enzymatic assay % inhibition at 1 nM
[5] = read-out: Biological Example No. 4: CYP17 enzymatic assay IC50
[6] = read-out: CYP17 enzymatic assay % inhibition at 1 nM (Biological Example No. 12)
[7] = read-out: CYP17 enzymatic assay IC50 (Biological Example No. 4)

Structure (SMILES)	inhibition at 0.001 µM [1, 4] [%]	IC50 [2, 5] [nM]	half-life at 1 μM [3] [min]	inhibition at 0.001 µM [1, 6] [%]	IC50 [2, 7] [nM]
CC(=O)N[C@@H]1CC[C@@]2(C)C(=CCC3C2CC[C@]2(C)C(c4cncc(C(F)F)c4)=CCC32)C1 (stereo partly drawn) [Compound 480, N-((3R,10R,13S)-17-(5-(difluoromethyl)pyridin-3-yl)-10,13-dimethyl-2,3,4,7,8,9,10,11,12,13,14,15-dodecahydro-1H-cyclopenta[a]phenanthren-3-yl)acetamide]	> 50	< 11	1 to 50		
C[C@]12CCC3C(CC=C4C[C@H](O)CC[C@@]43C)C1=CC=C2c1cccnc1 (stereo partly drawn) [Compound 199, (3R,10R,13S)-10,13-dimethyl-17-(pyridin-3-yl)-2,3,4,7,8,9,10,11,12,13-decahydro-1H-cyclopenta[a]phenanthren-3-ol]			1 to 50	> 50	< 11
C[C@]12CC[C@H](O)CC1=CCC1C2CC[C@]2(C)C(c3cncc(N)c3)=CCC12 (stereo partly drawn) [Compound 283, (3S,10R,13S)-17-(5-aminopyridin-3-yl)-10,13-dimethyl-2,3,4,7,8,9,10,11,12,13,14,15-dodecahydro-1H-cyclopenta[a]phenanthren-3-ol]	> 50	< 11	> 50		
C[C@]12CCC3C(CC(F)[C@]4(O)C[C@@H](O)CC[C@]34C)C1CC=C2c1cccnc1 (stereo partly drawn) [Compound 322, (3S,5S,10R,13S)-6-fluoro-10,13-dimethyl-17-(pyridin-3-yl)-2,3,4,5,6,7,8,9,10,11,12,13,14,15-tetradecahydro-1H-cyclopenta[a]phenanthrene-3,5-diol]	> 50	< 11	1 to 50		
CC(=O)N[C@@H]1CC[C@@]2(C)C(CCC3C2CC[C@]2(C)C(c4cccnc4)=CCC32)C1 (stereo partly drawn) [Compound 215, N-((3R,10S,13S)-10,13-dimethyl-17-(pyridin-3-yl)-2,3,4,5,6,7,8,9,10,11,12,13,14,15-tetradecahydro-1H-cyclopenta[a]phenanthren-3-yl)acetamide]			1 to 50	> 50	< 11
C[C@]12CC[C@@H](NC(=O)C3CC3)CC1=CCC1C2CC[C@]2(C)C(c3cccnc3)=CCC12 (stereo partly drawn) [Compound 224, N-((3R,10R,13S)-10,13-dimethyl-17-(pyridin-3-yl)-2,3,4,7,8,9,10,11,12,13,14,15-dodecahydro-1H-cyclopenta[a]phenanthren-3-yl)cyclopropanecarboxamide]			1 to 50	> 50	< 11
C[C@]12CC[C@H](O)CC1=CCC1C2CC[C@]2(C)C(c3ccc(F)nc3)=CCC12 (stereo partly drawn) [Compound 276, (3S,10R,13S)-17-(6-fluoropyridin-3-yl)-10,13-dimethyl-2,3,4,7,8,9,10,11,12,13,14,15-dodecahydro-1H-cyclopenta[a]phenanthren-3-ol]	10 to 50	> 25	1 to 50		
COc1cncc(C2=CC[C@H]3[C@@H]4CC=C5C[C@H](NC(=O)C6CC6)CC[C@]5(C)[C@H]4CC[C@]23C)c1 [Compound 230, N-((3R,10R,13S)-17-(5-methoxypyridin-3-yl)-10,13-dimethyl-2,3,4,7,8,9,10,11,12,13,14,15-dodecahydro-1H-cyclopenta[a]phenanthren-3-yl)cyclopropanecarboxamide]			1 to 50	> 50	< 11
CC(=O)N[C@@H]1CC[C@@]2(C)C(=CC[C@@H]3[C@@H]2CC[C@]2(C)C(c4cncc(F)c4)=CC[C@@H]32)C1 [Compound 427, N-((3R,10R,13S)-17-(5-fluoropyridin-3-yl)-10,13-dimethyl-2,3,4,7,8,9,10,11,12,13,14,15-dodecahydro-1H-cyclopenta[a]phenanthren-3-yl)acetamide]	> 50	< 11	1 to 50		
